Experimental data published in patent US8680113B2, “BMI-1 protein expression modulators” (PTC Therapeutics, Inc., priority 2008, dated 2014).

System: Bmi-1
Assay: Sandwich ELISA Assay (Bmi-1 ELISA in HT-1080 cells)
Assay type: cell-based, human
Outline: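 Lysate Bmi-1 was quantified against a recombinant GST-Bmi-1 standard (0-8000 pg/mL) by sandwich ELISA read at OD450 with OD570 reference. The ELISA used mouse monoclonal capture, rabbit anti-Bmi-1, HRP anti-rabbit IgG and TMB. Before lysis, HT-1080 cells seeded at 8000/well were exposed to compounds for 40-48 h at 37°C with 0.5% final DMSO.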

With `Cc1nc2ccc(Cl)cn2c1-c1csc(Nc2cccc(Br)c2)n1` [Cpd 212, N-(3-bromophenyl)-4-(6-chloro-2-methylimidazo[1,2-a]pyridin-3-yl)-1,3-thiazol-2-amine] the IC50 was under 500 nM.

In the case of `Cc1nc2ccc(Cl)cn2c1-c1csc(Nc2cccc(Cl)c2)n1` [Cpd 213, 4-(6-chloro-2-methylimidazo[1,2-a]pyridin-3-yl)-N-(3-chlorophenyl)-1,3-thiazol-2-amine], the IC50 is reported as under 500 nM.

`Cc1ccc(Nc2nc(-c3c(C)nc4ccc(Cl)cn34)cs2)c(C)c1` [Cpd 214, 4-(6-chloro-2-methylimidazo[1,2-a]pyridin-3-yl)-N-(2,4-dimethylphenyl)-1,3-thiazol-2-amine] showed an IC50 of under 500 nM.

For `Cc1nc2ccc(Cl)cn2c1-c1csc(Nc2cccc(F)c2)n1` [Cpd 215, 4-(6-chloro-2-methylimidazo[1,2-a]pyridin-3-yl)-N-(3-fluorophenyl)-1,3-thiazol-2-amine], the IC50 was under 500 nM.

Work on `Cc1cc(Br)ccc1Nc1nc(-c2c(C)nc3ccc(Cl)cn23)cs1` [Cpd 216, N-(4-bromo-2-methylphenyl)-4-(6-chloro-2-methylimidazo[1,2-a]pyridin-3-yl)-1,3-thiazol-2-amine] yielded an IC50 of under 500 nM.

In the case of `COc1cccc(Nc2nc(-c3c(C)nc4ccc(Cl)cn34)cs2)c1` [Cpd 217, 4-(6-chloro-2-methylimidazo[1,2-a]pyridin-3-yl)-N-(3-methoxyphenyl)-1,3-thiazol-2-amine], the IC50 is reported as under 500 nM.

Work on `Cc1nc2ccc(Cl)cn2c1-c1csc(Nc2ccc(Cl)cc2Cl)n1` [Cpd 218, 4-(6-chloro-2-methylimidazo[1,2-a]pyridin-3-yl)-N-(2,4-dichlorophenyl)-1,3-thiazol-2-amine] yielded an IC50 of under 500 nM.

Work on `Cc1nc2ccc(Cl)cn2c1-c1csc(Nc2ccc3c(c2)OC(C)(C)O3)n1` [Cpd 219, 4-(6-chloro-2-methylimidazo[1,2-a]pyridin-3-yl)-N-(2,2-dimethyl-1,3-benzodioxol-5-yl)-1,3-thiazol-2-amine] yielded an IC50 of under 500 nM.

With `Cc1nc2c(Cl)cc(Cl)cn2c1-c1csc(Nc2ccc3c(c2)OCO3)n1` [Cpd 220, N-(1,3-benzodioxol-5-yl)-4-(6,8-dichloro-2-methylimidazo[1,2-a]pyridin-3-yl)-1,3-thiazol-2-amine] the IC50 was under 500 nM.

With `Cc1nc2c(C)cccn2c1-c1csc(Nc2ccc(N(C)C)cc2)n1` [Cpd 221, N′-[4-(2,8-dimethylimidazo[1,2-a]pyridin-3-yl)-1,3-thiazol-2-yl]-N,N-dimethylbenzene-1,4-diamine] the IC50 was under 500 nM.

`COc1ccc(Nc2nc(-c3c(C)nc4c(C)cccn34)cs2)cc1` [Cpd 222, 4-(2,8-dimethylimidazo[1,2-a]pyridin-3-yl)-N-(4-methoxyphenyl)-1,3-thiazol-2-amine] was tested, and the IC50 was under 500 nM.

Compound `Cc1ccc(Nc2nc(-c3c(C)nc4c(C)cccn34)cs2)cc1` [Cpd 223, 4-(2,8-dimethylimidazo[1,2-a]pyridin-3-yl)-N-(4-methylphenyl)-1,3-thiazol-2-amine] has an IC50 of under 500 nM.

Compound `Cc1nc2c(C)cccn2c1-c1csc(Nc2ccc(Cl)cc2)n1` [Cpd 224, N-(4-chlorophenyl)-4-(2,8-dimethylimidazo[1,2-a]pyridin-3-yl)-1,3-thiazol-2-amine] has an IC50 of under 500 nM.

`COc1cccc(Nc2nc(-c3c(C)nc4c(C)cccn34)cs2)c1` [Cpd 225, 4-(2,8-dimethylimidazo[1,2-a]pyridin-3-yl)-N-(3-methoxyphenyl)-1,3-thiazol-2-amine] gave an IC50 of under 500 nM.

With `Cc1nc2c(C)cccn2c1-c1csc(Nc2ccc3c(c2)OCO3)n1` [Cpd 226, N-(1,3-benzodioxol-5-yl)-4-(2,8-dimethylimidazo[1,2-a]pyridin-3-yl)-1,3-thiazol-2-amine] the IC50 was under 500 nM.

With `Cc1nc2c(Br)cccn2c1-c1csc(Nc2ccc(N(C)C)cc2)n1` [Cpd 227, N′-[4-(8-bromo-2-methylimidazo[1,2-a]pyridin-3-yl)-1,3-thiazol-2-yl]-N,N-dimethylbenzene-1,4-diamine] the IC50 was under 500 nM.

`COc1ccc(Nc2nc(-c3c(C)nc4c(Br)cccn34)cs2)cc1` [Cpd 228, 4-(8-bromo-2-methylimidazo[1,2-a]pyridin-3-yl)-N-(4-methoxyphenyl)-1,3-thiazol-2-amine] showed an IC50 of under 500 nM.

`Cc1ccc(Nc2nc(-c3c(C)nc4c(Br)cccn34)cs2)cc1` [Cpd 229, 4-(8-bromo-2-methylimidazo[1,2-a]pyridin-3-yl)-N-(4-methylphenyl)-1,3-thiazol-2-amine] showed an IC50 of under 500 nM.

In the case of `Cc1nc2c(Br)cccn2c1-c1csc(Nc2ccc(Cl)cc2)n1` [Cpd 230, 4-(8-bromo-2-methylimidazo[1,2-a]pyridin-3-yl)-N-(4-chlorophenyl)-1,3-thiazol-2-amine], the IC50 is reported as under 500 nM.

`Cc1nc2c(Br)cccn2c1-c1csc(Nc2ccccc2)n1` [Cpd 231, 4-(8-bromo-2-methylimidazo[1,2-a]pyridin-3-yl)-N-phenyl-1,3-thiazol-2-amine] showed an IC50 of under 500 nM.

`COc1cccc(Nc2nc(-c3c(C)nc4c(Br)cccn34)cs2)c1` [Cpd 232, 4-(8-bromo-2-methylimidazo[1,2-a]pyridin-3-yl)-N-(3-methoxyphenyl)-1,3-thiazol-2-amine] gave an IC50 of under 500 nM.

`Cc1nc2c(Br)cccn2c1-c1csc(Nc2ccccc2Cl)n1` [Cpd 233, 4-(8-bromo-2-methylimidazo[1,2-a]pyridin-3-yl)-N-(2-chlorophenyl)-1,3-thiazol-2-amine] showed an IC50 of under 500 nM.

`COc1ccccc1Nc1nc(-c2c(C)nc3c(Br)cccn23)cs1` [Cpd 234, 4-(8-bromo-2-methylimidazo[1,2-a]pyridin-3-yl)-N-(2-methoxyphenyl)-1,3-thiazol-2-amine] was tested, and the IC50 was under 500 nM.

Work on `Cc1nc2c(Br)cccn2c1-c1csc(Nc2ccc3c(c2)OCO3)n1` [Cpd 235, N-(1,3-benzodioxol-5-yl)-4-(8-bromo-2-methylimidazo[1,2-a]pyridin-3-yl)-1,3-thiazol-2-amine] yielded an IC50 of under 500 nM.

For `COc1cccc(Nc2nc(-c3c(C)nc4ccc(F)cn34)cs2)c1` [Cpd 236, 4-(6-fluoro-2-methylimidazo[1,2-a]pyridin-3-yl)-N-(3-methoxyphenyl)-1,3-thiazol-2-amine], the IC50 was under 500 nM.

`Cc1ccc(Nc2nc(-c3c(C)nc4ccc(F)cn34)cs2)cc1` [Cpd 237, 4-(6-fluoro-2-methylimidazo[1,2-a]pyridin-3-yl)-N-(4-methylphenyl)-1,3-thiazol-2-amine] gave an IC50 of under 500 nM.

Compound `Cc1nc2ccc(F)cn2c1-c1csc(Nc2c(Br)cccc2Br)n1` [Cpd 239, N-(2,6-dibromophenyl)-4-(6-fluoro-2-methylimidazo[1,2-a]pyridin-3-yl)-1,3-thiazol-2-amine] has an IC50 of under 500 nM.

Compound `Cc1nc2cc(Cl)ccn2c1-c1csc(Nc2ccc(Cl)cc2)n1` [Cpd 240, 4-(7-chloro-2-methylimidazo[1,2-a]pyridin-3-yl)-N-(4-chlorophenyl)-1,3-thiazol-2-amine] has an IC50 of under 500 nM.

`COc1ccc(Nc2nc(-c3c(C)nc4cc(Cl)ccn34)cs2)cc1` [Cpd 241, 4-(7-chloro-2-methylimidazo[1,2-a]pyridin-3-yl)-N-(4-methoxyphenyl)-1,3-thiazol-2-amine] showed an IC50 of under 500 nM.

Compound `Cc1nc2cc(Cl)ccn2c1-c1csc(Nc2ccc(N(C)C)cc2)n1` [Cpd 242, N′-[4-(7-chloro-2-methylimidazo[1,2-a]pyridin-3-yl)-1,3-thiazol-2-yl]-N,N-dimethylbenzene-1,4-diamine] has an IC50 of under 500 nM.

`Cc1ccc(Nc2nc(-c3c(C)nc4cc(Cl)ccn34)cs2)cc1` [Cpd 243, 4-(7-chloro-2-methylimidazo[1,2-a]pyridin-3-yl)-N-(4-methylphenyl)-1,3-thiazol-2-amine] showed an IC50 of under 500 nM.

Compound `CC(=O)c1ccc(Nc2nc(-c3c(C)nc4cc(Cl)ccn34)cs2)cc1` [Cpd 244, 1-(4-{[4-(7-chloro-2-methylimidazo[1,2-a]pyridin-3-yl)-1,3-thiazol-2-yl]amino}phenyl)ethanone] has an IC50 of under 500 nM.

Compound `COc1ccc(Nc2nccc(-c3cnc4ccccn34)n2)cc1` [Cpd 245, 4-(imidazo[1,2-a]pyridin-3-yl)-N-(4-methoxyphenyl)pyrimidin-2-amine] has an IC50 of under 500 nM.

In the case of `Clc1cccc(Nc2nccc(-c3cnc4ccccn34)n2)c1` [Cpd 246, N-(3-chlorophenyl)-4-(imidazo[1,2-a]pyridin-3-yl)pyrimidin-2-amine], the IC50 is reported as under 500 nM.

`Clc1ccccc1Nc1nccc(-c2cnc3ccccn23)n1` [Cpd 247, N-(2-chlorophenyl)-4-(imidazo[1,2-a]pyridin-3-yl)pyrimidin-2-amine] was tested, and the IC50 was 500 to 1000 nM.

`Fc1ccc(Nc2nccc(-c3cnc4ccccn34)n2)cc1` [Cpd 248, N-(4-fluorophenyl)-4-(imidazo[1,2-a]pyridin-3-yl)pyrimidin-2-amine] gave an IC50 of under 500 nM.

In the case of `COc1cc(Br)c(Nc2nccc(-c3cnc4ccccn34)n2)c(Br)c1` [Cpd 249, N-(2,6-dibromo-4-methoxyphenyl)-4-(imidazo[1,2-a]pyridin-3-yl)pyrimidin-2-amine], the IC50 is reported as under 500 nM.

For `CC(=O)c1ccc(Nc2nccc(-c3cnc4ccccn34)n2)cc1` [Cpd 250, 1-(4-{[4-(imidazo[1,2-a]pyridin-3-yl)pyrimidin-2-yl]amino}phenyl)ethanone], the IC50 was under 500 nM.

For `c1ccn2c(-c3ccnc(Nc4ccc5c(c4)OCO5)n3)cnc2c1` [Cpd 251, N-(1,3-benzodioxol-5-yl)-4-(imidazo[1,2-a]pyridin-3-yl)pyrimidin-2-amine], the IC50 was under 500 nM.

In the case of `CCOc1ccc(Nc2nccc(-c3cnc4ccccn34)n2)cc1` [Cpd 252, N-(4-ethoxyphenyl)-4-(imidazo[1,2-a]pyridin-3-yl)pyrimidin-2-amine], the IC50 is reported as under 500 nM.

`CCN(CC)c1ccc(Nc2nccc(-c3cnc4ccccn34)n2)cc1` [Cpd 253, N,N-diethyl-N′-[4-(imidazo[1,2-a]pyridin-3-yl)pyrimidin-2-yl]benzene-1,4-diamine] was tested, and the IC50 was under 500 nM.

Compound `CN(C)c1ccc(Nc2nccc(-c3cnc4ccccn34)n2)cc1` [Cpd 254, N′-[4-(imidazo[1,2-a]pyridin-3-yl)pyrimidin-2-yl]-N,N-dimethylbenzene-1,4-diamine] has an IC50 of under 500 nM.

With `Fc1cccc(Nc2nccc(-c3cnc4ccccn34)n2)c1` [Cpd 255, N-(3-fluorophenyl)-4-(imidazo[1,2-a]pyridin-3-yl)pyrimidin-2-amine] the IC50 was under 500 nM.
